Values of other authors, collected in patent US20080248140A1, “COMPOSITION FOR SUPPORTING RESTFUL SLEEP” (priority 2007, published 2008).

What was measured:
[1] = normal subjects (Mayer et al. 1996)
[2] = test system: GABA(A) receptor; conditions: activity produced by muscimol; Yuan et al. 2004

SMILES | quality of sleep and post-sleep restfulness [1] | neural activity in the brainstem [2]
C/C1=C2/[N-][C@H]([C@H](CC(N)=O)[C@@]2(C)CCC(=O)NC[C@@H](C)OP(=O)([O-])O[C@H]2[C@@H](O)[C@@H](n3cnc4cc(C)c(C)cc43)O[C@@H]2CO)[C@]2(C)N=C(/C(C)=C3N=C(/C=C4N=C1[C@@H](CCC(N)=O)C\4(C)C)[C@@H](CCC(N)=O)[C@]\3(C)CC(N)=O)[C@@H](CCC(N)=O)[C@]2(C)CC(N)=O.[CH3-].[Co+3] [Methylcobalamin] | increases in the quality of sleep and feelings of post-sleep restfulness | 
CC1=C2[C@H](/C=C(\C)C(=O)O)CC[C@@H](C)[C@H]2CC1 [Valerinic acid] |  | decrease neural activity in the brainstem
